Patent US8993606B2, “Oral formulations for treating metal overload” (FerroKin BioSciences, Inc., priority 2011, dated 2015)
Read-outs that look alike come from different tables or passages of the source.

Test: Example 7: high single doses in healthy human subjects (PK)
Format: in vivo
Conditions: fasted; for CL renal / AUC(0-inf) / Cmax / Tmax / Vd/F / half-life: both sexes, human; for CL renal: plasma and urine; for AUC(0-inf) / Cmax / Tmax / Vd/F / half-life: plasma; for Vd/F: read-out: Vz/F; for half-life: read-out: t½ (converted)
Experimental: Subjects were male and female healthy human volunteers aged between 18 and 50 years, free from clinically significant illness or disease as determined by their medical/surgical history, physical examination etc., and having a serum ferritin>20 ng/mL. Subjects were given, in the fasted state, either 30, 40, 50, or 60 mg/kg Compound 1 as a blended formulation of 96% (wt/wt) drug substance (powder) with 3% (wt/wt) croscarmellose sodium and 1% (wt/wt) magnesium stearate dispensed in hard gelatin capsules in strengths of 50 mg, 100 mg, 250 mg, and 375 mg.
The 30 and 50 mg/kg dose groups each contained seven subjects; data from only four of these subjects was used to calculate AUCinf, t½, CL/F, and VZ/F. The 40 and 60 mg/kg dose groups each contained three subjects; data from only three of these subjects was used to calculate AUCinf, t½, CL/F, and VZ/F.
Blood samples of approximately 7 mL were drawn via cannula at 0.25, 0.5, 0.75, 1, 1.25, 1.5, 2, 2.5, 4, 8, 12 and 24 hours post-dose, for pharmacokinetic analysis. (See FIG. 2.) Urine was collected over the time periods 0-4, 4-8, 8-12 and 12-24 hours post-dose for pharmacokinetic and pharmacodynamic assessment.
PK plasma and PK urine samples were assayed by a validated LC/MS/MS method, specific for the determination of Compound 1. Pharmacokinetic parameters for Compound 1 will be calculated using non-compartmental analysis. Only plasma and urine concentrations greater than the lower limits of quantitation (LOQ, 5 ng/mL in plasma and urine) for the assays will be used in the pharmacokinetic analysis.

## COCCOCCOCCOc1cccc(C2=N[C@@](C)(C(=O)O)CS2)c1O [Compound 1, (S)-4,5-Dihydro-2-[2-hydroxy-3-(3,6,9-trioxadecyloxy)phenyl]-4-methyl-4-thiazolecarboxylate magnesium hydroxide]
Single oral dose 30 mg/kg
  CL renal: 139 ± 13.2 mL/min
  AUC(0-inf): 161 ± 24.1 µg·h/mL
  Cmax: 68.2 ± 17.5 µg/mL
  Tmax: 1 h
  Vd/F: 248 ± 58.8 L
  half-life: 12.1 ± 3.05 h
  CL/F: 239 ± 17.2 mL/min
Single oral dose 40 mg/kg
  CL renal: 152 ± 18 mL/min
  AUC(0-inf): 195 ± 67.3 µg·h/mL
  Cmax: 87.9 ± 15 µg/mL
  Tmax: 1.38 h
  Vd/F: 542 ± 657 L
  half-life: 18.6 ± 19.2 h
  CL/F: 290 ± 73.8 mL/min
Single oral dose 50 mg/kg
  CL renal: 103 ± 16.2 mL/min
  AUC(0-inf): 236 ± 58.3 µg·h/mL
  Cmax: 91.7 ± 18.8 µg/mL
  Tmax: 1.5 h
  Vd/F: 338 ± 272 L
  half-life: 12.8 ± 7.66 h
  CL/F: 286 ± 56.1 mL/min
Single oral dose 60 mg/kg
  CL renal: 146 ± 34.4 mL/min
  AUC(0-inf): 227 ± 44.7 µg·h/mL
  Cmax: 104 ± 36.7 µg/mL
  Tmax: 1.25 h
  Vd/F: 285 ± 159 L
  half-life: 8.44 ± 3.83 h
  CL/F: 381 ± 55.8 mL/min
